Reference: ChEMBL document CHEMBL6109064, “Functional and structural polypharmacology of indazole-based privileged ligands to tackle the undruggability of membrane transporters” (Eur J Med Chem, 2025)
Calls of active or inactive are those of the source. No cut-off for these calls is given here.

What was measured:
[1] = target: T1, Broad substrate specificity ATP-binding cassette transporter ABCG2 (Homo sapiens, UniProt Q9UNQ0); assay: Inhibition of ABCG2 (unknown origin) expressed in dog MDCK-II-BCRP cells assessed as increase in pheophorbide A fluorescence intensity using pheophorbide as tracer preincubated for 30 mins followed by pheophorbide addition and measured for 180 mins by flow cytometry; format: cell-based
T1 sequence (Q9UNQ0 whole entry): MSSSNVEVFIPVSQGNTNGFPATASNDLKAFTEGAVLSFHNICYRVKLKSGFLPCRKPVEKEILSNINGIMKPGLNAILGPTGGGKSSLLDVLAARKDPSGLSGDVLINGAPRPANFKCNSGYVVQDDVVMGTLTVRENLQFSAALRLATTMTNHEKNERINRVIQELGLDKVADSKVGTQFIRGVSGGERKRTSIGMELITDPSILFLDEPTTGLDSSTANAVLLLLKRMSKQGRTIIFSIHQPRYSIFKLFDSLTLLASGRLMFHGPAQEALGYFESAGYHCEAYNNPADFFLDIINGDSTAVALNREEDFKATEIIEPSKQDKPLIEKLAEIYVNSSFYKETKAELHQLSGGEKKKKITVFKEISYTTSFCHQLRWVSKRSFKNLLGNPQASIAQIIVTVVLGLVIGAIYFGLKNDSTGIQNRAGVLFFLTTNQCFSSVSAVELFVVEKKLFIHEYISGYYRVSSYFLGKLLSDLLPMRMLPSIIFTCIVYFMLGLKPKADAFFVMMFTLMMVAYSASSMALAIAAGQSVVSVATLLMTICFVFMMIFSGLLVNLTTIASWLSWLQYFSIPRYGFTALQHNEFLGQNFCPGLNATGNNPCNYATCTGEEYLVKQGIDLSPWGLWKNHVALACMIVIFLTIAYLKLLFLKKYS

[2] = target: T1, Broad substrate specificity ATP-binding cassette transporter ABCG2; assay: Inhibition of ABCG2 (unknown origin) expressed in dog MDCK-II-BCRP cells assessed as increase in Hoechst 33342 fluorescence intensity using Hoechst 33342 as tracer preincubated for 30 mins followed by Hoechst 33342 addition and measured after 120 mins by fluorescence based analysis; format: cell-based
[3] = target: Sodium-dependent dopamine transporter (Homo sapiens) (UniProt Q01959); assay: Inhibition of DAT (unknown origin) expressed in HEK293 cells assessed as inhibition of MPP+ transport incubated for 5 mins by tandem mass spectrometry; format: cell-based
[4] = target: T2, Solute carrier organic anion transporter family member 2B1 (Homo sapiens, UniProt O94956); assay: Inhibition of OATP2B1 (unknown origin) transfected in human A-431 cells assessed as inhibition of pyranine uptake preincubated for 5 mins followed by pyranine addition and measured after 15 mins by fluorescence based analysis; format: cell-based
T2 sequence (O94956 whole entry): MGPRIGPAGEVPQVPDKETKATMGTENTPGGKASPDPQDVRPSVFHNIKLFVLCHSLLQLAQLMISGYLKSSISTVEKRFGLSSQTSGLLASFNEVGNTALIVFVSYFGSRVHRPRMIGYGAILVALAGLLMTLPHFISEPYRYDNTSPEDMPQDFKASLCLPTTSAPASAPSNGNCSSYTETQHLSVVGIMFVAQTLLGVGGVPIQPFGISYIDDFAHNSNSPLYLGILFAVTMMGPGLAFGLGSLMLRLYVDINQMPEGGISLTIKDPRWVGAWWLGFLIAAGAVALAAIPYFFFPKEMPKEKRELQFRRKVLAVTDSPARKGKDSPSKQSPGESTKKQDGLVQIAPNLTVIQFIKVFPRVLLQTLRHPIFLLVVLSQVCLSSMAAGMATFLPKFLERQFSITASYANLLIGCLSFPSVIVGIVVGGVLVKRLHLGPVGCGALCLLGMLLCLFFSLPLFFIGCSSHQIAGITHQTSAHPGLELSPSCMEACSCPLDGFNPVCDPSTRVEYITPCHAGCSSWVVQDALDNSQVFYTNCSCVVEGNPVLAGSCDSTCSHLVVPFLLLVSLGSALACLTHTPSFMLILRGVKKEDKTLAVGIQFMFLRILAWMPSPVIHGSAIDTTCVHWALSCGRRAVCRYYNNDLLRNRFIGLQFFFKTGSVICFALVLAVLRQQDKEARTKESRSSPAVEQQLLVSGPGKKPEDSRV

[5] = target: T3, Solute carrier family 22 member 1 (Homo sapiens, UniProt O15245); assay: Inhibition of OCT1 (unknown origin) expressed in HEK293 cells assessed as inhibition of ASP+ uptake incubated for 5 mins by fluorescence based analysis; format: cell-based; settings: hek293, 5 min
T3 sequence (O15245 whole entry): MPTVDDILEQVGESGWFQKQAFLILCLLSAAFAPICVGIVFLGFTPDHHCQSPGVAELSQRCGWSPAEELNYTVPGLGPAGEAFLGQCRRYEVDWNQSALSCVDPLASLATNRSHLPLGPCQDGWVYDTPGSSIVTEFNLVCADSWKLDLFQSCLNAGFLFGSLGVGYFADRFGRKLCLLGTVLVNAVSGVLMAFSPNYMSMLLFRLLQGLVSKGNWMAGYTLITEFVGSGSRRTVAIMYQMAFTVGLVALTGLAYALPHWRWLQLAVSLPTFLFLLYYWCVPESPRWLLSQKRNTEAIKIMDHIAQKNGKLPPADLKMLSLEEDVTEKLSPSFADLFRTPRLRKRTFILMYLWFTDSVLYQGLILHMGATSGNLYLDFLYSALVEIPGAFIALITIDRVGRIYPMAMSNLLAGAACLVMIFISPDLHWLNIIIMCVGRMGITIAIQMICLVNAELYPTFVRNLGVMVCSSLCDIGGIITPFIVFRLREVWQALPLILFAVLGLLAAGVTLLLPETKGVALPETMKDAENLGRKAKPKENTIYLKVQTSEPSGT

[6] = Inhibition of ABCA1 (unknown origin) expressed in mouse J774.A1 cells assessed as inhibition of 25-NBD-cholesterol fluorescence intensity preincubated for 24 hrs followed by 25-NBD-cholesterol addition and measured after 48 hrs by flow cytometry; format: cell-based, Homo sapiens

Chain of Sodium-dependent dopamine transporter (Homo sapiens) (Q01959 whole entry): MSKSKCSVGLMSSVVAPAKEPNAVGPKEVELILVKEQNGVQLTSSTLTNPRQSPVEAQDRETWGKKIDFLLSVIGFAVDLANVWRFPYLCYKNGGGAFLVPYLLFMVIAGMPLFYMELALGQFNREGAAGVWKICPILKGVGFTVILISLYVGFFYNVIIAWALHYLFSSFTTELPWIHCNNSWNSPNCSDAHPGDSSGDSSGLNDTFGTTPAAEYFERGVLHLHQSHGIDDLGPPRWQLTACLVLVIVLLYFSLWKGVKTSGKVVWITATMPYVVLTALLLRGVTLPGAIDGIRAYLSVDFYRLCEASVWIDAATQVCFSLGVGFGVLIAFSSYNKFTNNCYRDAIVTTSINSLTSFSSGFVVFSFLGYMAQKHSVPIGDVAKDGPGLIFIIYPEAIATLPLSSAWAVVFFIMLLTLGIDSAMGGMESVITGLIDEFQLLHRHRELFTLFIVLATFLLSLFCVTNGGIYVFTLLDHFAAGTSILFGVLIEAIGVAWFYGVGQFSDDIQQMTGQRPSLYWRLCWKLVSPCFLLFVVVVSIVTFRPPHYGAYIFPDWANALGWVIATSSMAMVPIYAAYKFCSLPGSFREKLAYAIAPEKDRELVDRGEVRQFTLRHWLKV

IC50 [1] | IC50 [2] | inhibition [3] | IC50 [4] | inhibition (INH) [5] | IC50 ([6]; read-out: IC50) | IC50 [6] | SMILES
14200 nM | 6560 nM | inactive | 155 nM | Not_active | 4700 nM |  | O=C(Cn1nc(C(=O)Nc2cccnc2)c2ccccc21)Nc1ccc(Cl)cc1
1170 nM | 1030 nM | inactive | 167 nM | Not_active | 13000 nM |  | O=C(Cn1nc(C(=O)Nc2ccccn2)c2ccccc21)Nc1cc(Cl)ccc1Cl
1330 nM | 2070 nM | inactive | 583 nM | Not_active |  | Not_active | COc1cccc(NC(=O)Cn2nc(C(=O)Nc3cccc(OC)c3)c3ccccc32)c1
1660 nM | 6290 nM | inactive | 124 nM | Not_active |  | Not_active | COc1cccc(NC(=O)c2nn(CC(=O)Nc3ccccc3OC)c3ccccc23)c1
